Test results published in patent publication US20140271770A1, “Methods And Compositions For Treating Post-Operative Pain Comprising Clonidine” (WARSAW ORTHOPEDIC, INC., priority 2013, published 2014).

Assay: 14 day pharmacokinetic study, clonidine strips implanted in intermuscular pockets, plasma clonidine by LC/MS/MS
Assay type: in vivo, beagle dogs
Conditions: mannitol as excipient in the clonidine strips
From the text: Clonidine strips were surgically implanted in intermuscular pockets in beagle dogs to evaluate the in vivo clonidine elution and plasma clonidine concentrations. Four male and four female dogs were divided into two groups of two (per sex). Group 1 received 6 strips of formulation 640-51 (5% clonidine HCl, 5% mannitol, 60:40 LCL 5A polymer, micronized API) and Group 2 received 6 strips of formulation 640-73 (4% clonidine HCl, 7.5% mannitol, 60:40 LCL 5A polymer, milled 25 micron API).
Blood was drawn at 30 minutes and 1, 2, 4, 8, and 24 hours post-implant. Blood was then drawn daily through day 7, and again at days 10 and 14. The blood was processed to plasma and the clonidine concentration in the plasma was determined by high performance liquid chromatography and tandem mass spectroscopy (LC/MS/MS).

OC[C@@H](O)[C@@H](O)[C@H](O)[C@H](O)CO [Mannitol]
effect on drug release within the first 72 hours: speeds up drug release
